Source: PMC6402572 (ChemMedChem, 2018)

Assays:
HCT116 cells = assay: Soft agar anchorage-independent growth assay, HCT116 cells; assay type: cell-based; details: read-out: GI50, anchorage-independent growth of HCT116 cells, Control, without SIRT2 overexpression
[1] = test system: HCT116 cells with SIRT2 overexpression; details: read-out: GI50, anchorage-independent growth of HCT116 cells, SIRT2 expression, soft agar
HME-1 cells = assay: Cytotoxicity; assay type: cell-based; details: read-out: GI50 in HME-1 cells; normal mammary epithelial cell line
MCF10A cells = assay: Cytotoxicity; assay type: cell-based; details: read-out: GI50 in MCF10A cells; normal mammary epithelial cell line
SIRT6 = SIRT6 (Homo sapiens, UniProt Q8N6T7); assay: HPLC-based SIRT6 demyristoylation assay; assay type: biochemical; details: with pre-incubation
SIRT3 = target: T1, SIRT3 (Homo sapiens, UniProt Q9NTG7); assay: HPLC-based SIRT3 deacetylation assay; assay type: biochemical; details: with pre-incubation
T1 sequence (Q9NTG7 1-399): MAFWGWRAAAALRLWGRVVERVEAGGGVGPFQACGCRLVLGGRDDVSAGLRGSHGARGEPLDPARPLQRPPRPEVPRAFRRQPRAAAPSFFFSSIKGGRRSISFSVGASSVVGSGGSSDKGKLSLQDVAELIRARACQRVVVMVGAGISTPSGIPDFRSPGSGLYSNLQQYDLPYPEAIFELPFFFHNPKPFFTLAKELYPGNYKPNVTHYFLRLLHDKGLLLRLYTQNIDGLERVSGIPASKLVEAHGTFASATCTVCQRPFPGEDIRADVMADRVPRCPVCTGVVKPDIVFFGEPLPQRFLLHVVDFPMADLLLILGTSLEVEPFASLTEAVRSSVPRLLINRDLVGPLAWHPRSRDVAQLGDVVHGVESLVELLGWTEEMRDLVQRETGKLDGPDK

SIRT6, sequence (Q8N6T7 whole entry, species assumed): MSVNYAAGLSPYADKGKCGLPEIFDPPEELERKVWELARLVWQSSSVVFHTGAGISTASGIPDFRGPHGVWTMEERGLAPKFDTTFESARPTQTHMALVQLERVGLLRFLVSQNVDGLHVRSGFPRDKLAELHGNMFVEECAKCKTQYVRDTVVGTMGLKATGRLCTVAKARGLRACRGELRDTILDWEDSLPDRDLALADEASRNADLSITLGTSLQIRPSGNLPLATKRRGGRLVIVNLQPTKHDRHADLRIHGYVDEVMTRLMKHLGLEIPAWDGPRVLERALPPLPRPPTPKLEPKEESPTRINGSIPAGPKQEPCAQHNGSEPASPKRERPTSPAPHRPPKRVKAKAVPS

| GI50 (HCT116 cells) [µM] | GI50 [1] [µM] | Inhibition of SIRT6 (SIRT6) | Inhibition of SIRT3 (SIRT3) | Structure (SMILES) | GI50 (HME-1 cells) [µM] | GI50 (MCF10A cells) [µM] |
| --- | --- | --- | --- | --- | --- | --- |
| 2.1 | – | – | – | CN(C)CCCCC(=O)Nc1ccc(NC(=S)NC(=O)c2ccc(C(C)(C)C)cc2)cc1 [Tenovin-6] | – | – |
| 24.1 | 27.6 | – | – | N#C/C(=C\c1ccc(-c2cc(Cl)ccc2Cl)o1)C(=O)Nc1cccc2ncccc12 [AGK2] | – | – |
| 13.5 | 24.2 | essentially did not inhibit | essentially did not inhibit | CCCCCCCCCCCCCC(=S)NCCCCC(NC(=O)OCc1ccccc1)C(=O)Nc1ccccc1 (centres unmarked) [TM] | > 50 | > 50 |
| 55.8 | 58.1 | – | – | Cc1cc(C)nc(SCC(=O)Nc2ncc(Cc3cccc4ccccc34)s2)n1 [SirReal2] | – | – |
